What was measured:
corneodesmosin = experiment: Corneodesmosin signal after incubation of SC acetone powder with semi-purified AGA (immunoblot); assay type: biochemical; conditions: 8 hours, 37° C., pH 8
Protocol: An SC acetone powder obtained by the “varnish stripping” technique as described by Mehul B. et al. (2000, The Journal of Biological Chemistry, Vol. 275, No. 17, 12841-12847) is incubated with a semi-purified AGA extract in the presence or otherwise of 5 mM L-asparagine at the rate of 100 μl of incubation solution per mg of acetone powder. The incubations are carried out in 0.1 M Tris-HCl buffer, pH 8, at 37° C., for 8 hours, with stirring. A test t0 is made as well as a control: buffer alone.
The soluble proteins of each sample are then extracted under denaturing conditions (SDS, DTT and boiling). The total proteins are assayed according to the Bradford method and the concentrations are aligned at 0.6 mg/ml in Laemmli extraction buffer.
An SDS-PAGE separation is then carried out, followed by a transfer onto PVDF membrane marketed by Millipore. The corneodesmosin is immunodetected with the monoclonal antibody G3619 described in Serre G. et al. (1991, J. Invest. Dermatol., 97, 1061-1072) diluted 1/12500.
Each blot is then stained with a 0.03% amido black solution (SIGMA) in order to normalize the quantity of corneodesmosin relative to a quantification of the keratins.
FIG. 2 presents the variation of the corneodesmosin signal after incubation of various quantities of semi-purified AGA with an acetone powder for 8 hours.

[1] = molecular target: T1, AGA activity purified from the SC (aspartylglucosaminidase, EC 3.5.1.26) (Homo sapiens, UniProt P20933); experiment: AGA activity assay with the fluorescent substrate Asp-AMC; assay type: biochemical; conditions: L-asparagine used at 1.25 mM
T1 construct: led to the identification of the A chain of AGA (band of 24 kDa); and of the B chain of AGA (bands of 16 and 15 kDa); from tissue; host or cells: human stratum corneum, scraped from the anterior surface of the leg
T1 sequence (P20933 24-205 limits assumed): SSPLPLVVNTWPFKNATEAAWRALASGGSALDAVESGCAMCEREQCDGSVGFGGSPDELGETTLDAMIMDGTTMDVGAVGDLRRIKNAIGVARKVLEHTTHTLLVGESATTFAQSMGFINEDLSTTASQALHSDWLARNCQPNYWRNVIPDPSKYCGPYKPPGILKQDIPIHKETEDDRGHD
T1 sequence (P20933 206-346 limits assumed): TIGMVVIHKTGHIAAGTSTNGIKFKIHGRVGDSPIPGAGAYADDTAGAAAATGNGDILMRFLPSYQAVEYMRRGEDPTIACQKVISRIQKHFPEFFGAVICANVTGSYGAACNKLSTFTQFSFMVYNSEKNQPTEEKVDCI
Protocol: The purification of AGA is monitored by assaying of activity with the fluorescent substrate L-aspartic acid beta(7-amido-4-methylcoumarin) (Asp-AMC) according to the method described by Mononen I. T. et al., 1993, Analytical Biochemistry, 208, 372-374. 10 μl of each eluted fraction are incubated for 24 h at 37° C. with 100 μl of Asp-AMC substrate diluted to 1 mM in 0.1 M Tris-HCl buffer, pH 8. The fluorescence is quantified on a Biolumin reader (excitation/emission: 340/450 nm).
The AGA activity was assayed with the substrate Asp-AMC in various SC extracts.

| inhibition of the AGA activity purified from the SC [1] | Molecule | inhibition of the AGA-induced decrease in corneodesmosin (corneodesmosin; L-asparagine at 5 mM, 10 μl of AGA condition) | variation of the quantity of corneodesmosin (prodesquamating effect) (corneodesmosin; SC acetone powder incubated with increasing quantities of semi-purified AGA) |
| --- | --- | --- | --- |
| inhibit the AGA activity | NC(=O)C[C@H](N)C(=O)O [L-asparagine] | inhibits this effect | – |
| – | aspartylglucosaminidase AGA (EC 3.5.1.26) | – | decrease in the quantity of corneodesmosin |
